Where two headings read alike, the source gives them in different places. Blank lines part the entries; values can stand above or below the molecule they belong to. *1 amine or outer side, *2 acyl side, *3 side chain or, on linkers, in order; H or OH if unused. Where a SMILES comes first, the peptide text is derived from it. Bridges are numbered along the chain shown (N, C = ends). Primed or numbered codes have the meaning given here. Where no end group is shown, it is not given here. [ ]: non-standard residue; d: D form. The star is where a group is joined. T1 = linker NH2CH2CH2N(SO2Me)CH2COOH, CS(=O)(=O)N(CCN[*:1])CC(=O)[*:2]; T1″ = NH2CH2CH2N(SO2Me)CH2COOH, CS(=O)(=O)N(CCN[*:1])CC(=O)[*:2]; dProlinol(O-CH2CO) = O=C(COC[C@H]1CCCN1[*:1])[*:2]; N(2-Aminoethyl)Gly = O=C(CN(CCN[*:3])[*:1])[*:2]; T3 = linker N(CH2)3CHCH2OCH2COOH; Nle = CCCC[C@H](N)C(=O)O; Ms = CS(=O)(=O)*
Assays:
[1] = test system: peripheral blood mononuclear cells (PBMC); assay: Cell death in normal peripheral blood mononuclear cells, annexin V positivity and FACS; format: cell-based, human; details: 6.25-50 ug/ml, six hours
Experimental: Peripheral blood mononuclear cells (PBMC) were isolated from a normal donor. Cells were treated with 6.25, 12.5, 25 and 50 ug/ml for six hours and cell death was measured by annexin V positivity and FACS analysis.
CD34^+ hematopoietic progenitor cells were isolated from peripheral blood and treated for 2 hrs with integrin interaction inhibitors (12.5 and 50 μg/ml) and then plated in a methylcellulose media supplemented with growth factors supporting myeloid and erythroid colonies. Colonies were counted on day 12 post-plating. […] In addition, we evaluated the toxicity of integrin interaction inhibitors in normal peripheral blood mononuclear cells (PBMC).

[2] = test system: H929 myeloma cells; format: cell-based, human; details: for activity relative to linear D-HYD1 (words): TOPRO 3; for bioactivity relative to parent/comparator peptide: SAR statements
Experimental: H929 cells were treated for 24 hours with varying concentrations of peptide. Cell death was measured by Topro-3 staining and FACS analysis. The IC50 values were obtained from linear regression analysis and an average value was obtained from 3 independent experiments.
Table 4 legend: Structure activity relationship in H929 myeloma cells of cyclic INTEGRIN INTERACTION INHIBITORS derivatives. The minimal bioactive core sequence of INTEGRIN INTERACTION INHIBITORS WSVVM (SEQ ID NO:33) was cyclized using 2 novel reduced amide bond beta turn promoters and KLKLK (SEQ ID NO:34) as the non-recognition sequence. H929 cells were treated with varying concentrations of the indicated peptide for 24 h. Cell viability was determined using Topro-3 staining and FACS analysis after drug treatment. IC50 values were generated from linear regressions generated from the dose response curves (n=mean of 3 independent experiments).
A colony forming assay was used to compare induced cell death in H929 multiple myeloma cells. Cells were treated with integrin interaction inhibitors, shown in FIG. 5 and Table 4, and cell death was measured following 24 hour peptide treatment by TOPRO-3 staining and FACS analysis.

[3] = target: CD44 (endogenous, of NCI-H929, U266, U937 and HL-60 cells) (human) (UniProt P16070); assay: biotin-HYD1 NeutrAvidin pull-down of U266 membranes, LC-MS/MS
CD44 (endogenous, of NCI-H929, U266, U937 and HL-60 cells) (human), sequence (P16070 21-742 limits assumed): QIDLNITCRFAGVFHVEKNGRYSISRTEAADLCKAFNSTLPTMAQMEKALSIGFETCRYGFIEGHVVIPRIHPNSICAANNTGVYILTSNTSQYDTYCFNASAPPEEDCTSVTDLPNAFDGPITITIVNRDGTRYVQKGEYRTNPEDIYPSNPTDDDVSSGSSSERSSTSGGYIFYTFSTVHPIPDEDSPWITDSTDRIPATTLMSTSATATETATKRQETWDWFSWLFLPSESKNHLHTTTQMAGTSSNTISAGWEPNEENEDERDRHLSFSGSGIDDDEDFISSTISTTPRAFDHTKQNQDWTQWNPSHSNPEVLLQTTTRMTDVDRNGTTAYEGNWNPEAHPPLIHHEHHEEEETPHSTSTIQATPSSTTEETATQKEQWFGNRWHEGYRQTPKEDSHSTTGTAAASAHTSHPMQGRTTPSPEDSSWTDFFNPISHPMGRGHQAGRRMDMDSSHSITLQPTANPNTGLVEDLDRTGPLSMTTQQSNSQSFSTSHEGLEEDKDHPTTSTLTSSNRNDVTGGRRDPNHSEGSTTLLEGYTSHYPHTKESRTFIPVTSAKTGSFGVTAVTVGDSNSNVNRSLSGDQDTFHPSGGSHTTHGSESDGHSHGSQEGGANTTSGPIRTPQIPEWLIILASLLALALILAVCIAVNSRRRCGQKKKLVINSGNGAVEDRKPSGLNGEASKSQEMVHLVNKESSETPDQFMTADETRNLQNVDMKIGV

[4] = target: Intercellular adhesion molecule 3 (ICAM3) (Homo sapiens (Human)) (UniProt P32942); assay: as above
Intercellular adhesion molecule 3 (ICAM3) (Homo sapiens (Human)), sequence (P32942 30-547 limits assumed): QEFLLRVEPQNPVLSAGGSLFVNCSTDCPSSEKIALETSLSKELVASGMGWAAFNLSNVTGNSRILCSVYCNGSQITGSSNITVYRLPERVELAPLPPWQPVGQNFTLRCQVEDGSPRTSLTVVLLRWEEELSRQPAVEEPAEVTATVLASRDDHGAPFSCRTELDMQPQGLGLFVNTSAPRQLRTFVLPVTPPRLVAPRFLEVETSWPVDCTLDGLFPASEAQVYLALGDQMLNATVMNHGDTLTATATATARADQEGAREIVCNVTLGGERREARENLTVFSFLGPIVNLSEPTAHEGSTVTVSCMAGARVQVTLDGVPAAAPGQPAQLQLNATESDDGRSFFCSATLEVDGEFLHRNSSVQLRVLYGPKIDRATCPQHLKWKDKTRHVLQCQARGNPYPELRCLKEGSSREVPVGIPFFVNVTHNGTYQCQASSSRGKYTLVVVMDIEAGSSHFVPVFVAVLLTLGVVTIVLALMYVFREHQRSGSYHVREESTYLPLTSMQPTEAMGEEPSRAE

[5] = target: CD59 (UniProt P13987); assay: as above
CD59, sequence (P13987 26-102 limits assumed): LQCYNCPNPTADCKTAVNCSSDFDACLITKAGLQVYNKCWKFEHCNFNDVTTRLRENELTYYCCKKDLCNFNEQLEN

[6] = target: Basigin (Homo sapiens (Human)) (UniProt P35613); assay: as above
Basigin (Homo sapiens (Human)), sequence (P35613 other isoform, or with tags, fused parts or gaps limits assumed): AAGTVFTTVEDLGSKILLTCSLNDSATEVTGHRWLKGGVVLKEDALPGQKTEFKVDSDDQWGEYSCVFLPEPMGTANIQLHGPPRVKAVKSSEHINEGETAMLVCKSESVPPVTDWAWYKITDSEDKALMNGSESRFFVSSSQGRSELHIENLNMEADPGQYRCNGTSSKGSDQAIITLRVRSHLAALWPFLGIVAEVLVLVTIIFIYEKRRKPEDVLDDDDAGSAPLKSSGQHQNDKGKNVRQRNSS

[7] = target: Intercellular adhesion molecule 1 (ICAM1) (Homo sapiens (Human)) (UniProt P05362); assay: as above
Intercellular adhesion molecule 1 (ICAM1) (Homo sapiens (Human)), sequence (P05362 28-532 limits assumed): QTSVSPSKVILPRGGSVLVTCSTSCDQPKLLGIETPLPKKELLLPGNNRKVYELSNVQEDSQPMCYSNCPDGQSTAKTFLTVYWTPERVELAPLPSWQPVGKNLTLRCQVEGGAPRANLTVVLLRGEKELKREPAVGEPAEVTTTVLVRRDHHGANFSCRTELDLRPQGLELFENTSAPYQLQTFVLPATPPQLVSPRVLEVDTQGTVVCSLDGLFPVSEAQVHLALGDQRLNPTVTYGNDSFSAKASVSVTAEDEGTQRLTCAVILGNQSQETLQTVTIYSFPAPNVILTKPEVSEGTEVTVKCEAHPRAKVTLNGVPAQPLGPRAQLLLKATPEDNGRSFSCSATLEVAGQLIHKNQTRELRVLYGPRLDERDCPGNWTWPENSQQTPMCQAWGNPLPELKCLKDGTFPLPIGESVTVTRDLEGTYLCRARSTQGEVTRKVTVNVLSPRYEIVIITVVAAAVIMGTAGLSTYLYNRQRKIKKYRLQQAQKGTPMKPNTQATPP

[8] = target: Syndecan-1 (Homo sapiens (Human)) (UniProt P18827); assay: as above
Syndecan-1 (Homo sapiens (Human)), sequence (P18827 23-310 L136Q/G259V limits assumed): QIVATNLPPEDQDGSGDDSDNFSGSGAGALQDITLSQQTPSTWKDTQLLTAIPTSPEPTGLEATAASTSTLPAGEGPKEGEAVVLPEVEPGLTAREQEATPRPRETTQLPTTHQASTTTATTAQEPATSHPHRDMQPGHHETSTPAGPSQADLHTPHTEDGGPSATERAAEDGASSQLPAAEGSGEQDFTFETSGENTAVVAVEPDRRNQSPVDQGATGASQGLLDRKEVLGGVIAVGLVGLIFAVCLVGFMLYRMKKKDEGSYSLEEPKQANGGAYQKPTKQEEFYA

[9] = target: recombinant human CD44 ectodomain (amino acids 20-178, His-tagged, refolded from E. coli) (human) (UniProt P16070); assay: SPR, recombinant CD44 ectodomain on biotin conjugated HYD1, two-state binding model
recombinant human CD44 ectodomain (amino acids 20-178, His-tagged, refolded from E. coli) (human), sequence (P16070 20-178): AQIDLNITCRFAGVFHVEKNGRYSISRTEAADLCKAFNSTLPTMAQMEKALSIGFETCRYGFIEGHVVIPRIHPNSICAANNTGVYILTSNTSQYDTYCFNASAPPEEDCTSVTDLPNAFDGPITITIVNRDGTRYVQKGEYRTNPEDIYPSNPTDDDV

[10] = target: recombinant human CD44 ectodomain (amino acids 20-178, His-tagged, refolded from E. coli) (human) (UniProt P16070); assay: SPR, Biacore T100, recombinant CD44 ectodomain over biotin-HYD1 sensor chip, 1:1 binding model
[11] = target: CD59 (UniProt P13987); assay: LC-MS/MS of the biotin-HYD1 binding complex pulled down from NCI-H929 membranes (row CD59, column NCI-H929) [panel A.]
[12] = target: CD44 (endogenous, of NCI-H929, U266, U937 and HL-60 cells) (human) (UniProt P16070); assay: biotin-HYD1 NeutrAvidin pull-down of NCI-H929 membranes, LC-MS/MS
[13] = target: α4 integrin (Homo sapiens (Human)) (UniProt P13612); assay: as above
[14] = target: CD59 (UniProt P13987); assay: as above
[15] = target: Basigin (Homo sapiens (Human)) (UniProt P35613); assay: as above
[16] = target: β1 integrin (UniProt P05556); assay: as above
β1 integrin, sequence (P05556 21-798): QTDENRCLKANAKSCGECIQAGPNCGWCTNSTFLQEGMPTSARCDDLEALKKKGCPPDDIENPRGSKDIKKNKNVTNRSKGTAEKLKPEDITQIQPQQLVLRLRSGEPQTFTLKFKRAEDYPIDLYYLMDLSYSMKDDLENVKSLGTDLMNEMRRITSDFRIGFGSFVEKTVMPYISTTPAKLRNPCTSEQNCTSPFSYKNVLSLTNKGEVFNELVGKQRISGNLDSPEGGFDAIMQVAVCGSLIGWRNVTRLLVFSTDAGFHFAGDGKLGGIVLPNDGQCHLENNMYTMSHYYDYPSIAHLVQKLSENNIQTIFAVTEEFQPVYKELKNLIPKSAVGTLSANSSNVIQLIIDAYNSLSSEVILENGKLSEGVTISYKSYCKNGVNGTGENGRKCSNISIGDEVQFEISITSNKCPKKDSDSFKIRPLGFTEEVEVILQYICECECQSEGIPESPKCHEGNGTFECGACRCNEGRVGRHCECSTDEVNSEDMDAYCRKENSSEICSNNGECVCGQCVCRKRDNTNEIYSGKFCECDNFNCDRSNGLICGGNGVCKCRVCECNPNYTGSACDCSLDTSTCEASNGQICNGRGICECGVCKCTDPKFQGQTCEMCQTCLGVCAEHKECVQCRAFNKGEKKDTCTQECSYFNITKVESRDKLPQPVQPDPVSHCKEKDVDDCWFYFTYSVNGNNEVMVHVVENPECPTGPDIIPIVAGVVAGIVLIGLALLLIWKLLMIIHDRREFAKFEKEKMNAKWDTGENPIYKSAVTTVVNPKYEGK

[17] = target: Neural cell adhesion molecule 1 (NCAM1) (Homo sapiens (Human)) (UniProt P13591); assay: as above
Neural cell adhesion molecule 1 (NCAM1) (Homo sapiens (Human)), sequence (P13591 other isoform, or with tags, fused parts or gaps limits assumed): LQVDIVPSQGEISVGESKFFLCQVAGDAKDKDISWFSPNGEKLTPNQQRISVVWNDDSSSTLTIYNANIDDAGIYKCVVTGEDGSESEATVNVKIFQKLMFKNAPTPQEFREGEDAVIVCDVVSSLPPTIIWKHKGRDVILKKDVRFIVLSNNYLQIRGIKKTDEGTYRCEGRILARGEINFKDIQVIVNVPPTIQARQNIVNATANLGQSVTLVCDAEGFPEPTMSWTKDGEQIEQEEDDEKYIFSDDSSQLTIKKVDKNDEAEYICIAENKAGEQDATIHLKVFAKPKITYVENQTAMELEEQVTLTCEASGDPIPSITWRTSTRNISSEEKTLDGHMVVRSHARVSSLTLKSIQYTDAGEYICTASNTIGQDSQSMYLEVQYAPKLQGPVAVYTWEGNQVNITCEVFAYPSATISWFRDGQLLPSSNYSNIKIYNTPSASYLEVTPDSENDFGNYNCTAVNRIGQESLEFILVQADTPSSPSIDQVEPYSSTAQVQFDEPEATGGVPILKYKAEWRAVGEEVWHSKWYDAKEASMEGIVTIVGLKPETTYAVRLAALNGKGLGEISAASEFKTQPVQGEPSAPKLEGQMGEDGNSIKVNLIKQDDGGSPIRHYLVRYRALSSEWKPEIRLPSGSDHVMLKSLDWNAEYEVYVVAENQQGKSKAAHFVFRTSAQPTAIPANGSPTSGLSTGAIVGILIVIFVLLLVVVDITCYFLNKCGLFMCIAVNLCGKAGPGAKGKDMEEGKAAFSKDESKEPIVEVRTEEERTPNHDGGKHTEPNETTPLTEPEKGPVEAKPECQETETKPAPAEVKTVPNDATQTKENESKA

[18] = target: Syndecan-1 (Homo sapiens (Human)) (UniProt P18827); assay: as above
[19] = Table 8, cyclic III peptide analogs, H929 cells, read-out: IC50
[20] = H929 myeloma cells, 24 h treatment, Topro-3 staining and FACS, mean of at least 3 independent experiments, read-out: IC50

Molecule: CC[C@@H](C)[C@@H](NC(=O)[C@H](N)CCCCN)C(=O)N[C@H](CCCCN)C(=O)N[C@H](CCSC)C(=O)N[C@@H](C(=O)N[C@@H](C(=O)N[C@H](CO)C(=O)N[C@H](Cc1c[nH]c2ccccc12)C(=O)N[C@H](CCCCN)C(=O)NCC(=O)O)[C@H](C)CC)C(C)C [HYD1]
cell death in PBMC [1]: more potent in MM cells (H929) compared to normal hematopoietic cells

Molecule: CCCC[C@@H]1NC(=O)CN(S(C)(=O)=O)CCNC(=O)[C@H](CCCCN)NC(=O)[C@H](CC(C)C)NC(=O)[C@H](CCCCN)NC(=O)[C@H](CC(C)C)NC(=O)[C@H](CCCCN)NC(=O)COC[C@H]2CCCN2C(=O)[C@H](Cc2c[nH]c3ccccc23)NC(=O)[C@H](C)NC(=O)[C@H](Cc2ccccc2)NC(=O)[C@H](C(C)C)NC1=O [Peptide 26, KLKLKT1N*VFAWT3] (Ms-[N(2-Aminoethyl)Gly][Nle]VFAW[dProlinol(O-CH2CO)]KLKLK; lactam 1-C)
IC50 [2, 19]: 9 µM

Molecule: CSCC[C@H]1NC(=O)CN(S(C)(=O)=O)CCNC(=O)[C@@H](CCCCN)NC(=O)[C@@H](CC(C)C)NC(=O)[C@@H](CCCCN)NC(=O)[C@@H](CC(C)C)NC(=O)[C@@H](CCCCN)NC(=O)CN(S(C)(=O)=O)CCNC(=O)[C@@H](Cc2c[nH]c3ccccc23)NC(=O)[C@@H](CO)NC(=O)[C@@H](C(C)C)NC(=O)[C@@H](C(C)C)NC1=O [cyclic D-HYD1]
IC50 ([2]; 24 h): 30 µM | activity relative to linear D-HYD1 (words) ([2]; H929 cells): twice as active as linear D-HYD1 | activity relative to linear D-HYD1 (words) ([2]; H929 cells, listed as c-D-HYD1): about twice as active as linear D-HYD1

Molecule: KLKLKT1WAAVN*T1 (cyclo(KLKLK[T1″]WAAV[Nle][T1″])) [Peptide 14]
IC50 [2, 20]: > 50 µM | IC50 [2, 19]: 41 µM

Molecule: KLKLKT1WAVVAT1 (cyclo(KLKLK[T1]WAVVA[T1])) [Peptide 12]
IC50 [2, 20]: 10 µM | IC50 [2, 19]: 69 µM

B1: biotin-HYD1 (biotin conjugated HYD1, all D-amino acid peptide kikmviswkg) (peptide)
peptide: [dK][dI][dK][dM][dV][dI][dS][dW][dK]G
modifications: also: biotin conjugated, site not given here
Peptide match (peptide match hits) [3]: 5 | Peptide match (peptide match hits) [4]: 3 | Peptide match (peptide match hits) [5]: 2 | Peptide match (peptide match hits) [6]: 8 | Peptide match (peptide match hits) [7]: 6 | Peptide match (peptide match hits) [8]: 6 | Kd [9]: 0.0244 µM | Kd [10]: 0.026 µM | # peptides identified [11]: 3 peptides | Peptide match (peptide match hits) [12]: 7 | Peptide match (peptide match hits) [13]: 3 | Peptide match (peptide match hits) [14]: 2 | Peptide match (peptide match hits) [15]: 7 | Peptide match (peptide match hits) [16]: 2 | Peptide match (peptide match hits) [17]: 4 | Peptide match (peptide match hits) [18]: 5

The remaining molecules from weak to strong by IC50 [2, 19], led by results:

IC50 [2, 20]: 9 µM | IC50 [2, 19]: 26 µM
Molecule: KLKLKT1WAVAN*T1 (cyclo(KLKLK[T1]WAVAL[T1]); not fully specified (residue 11); printed as KLKLKT1WAVAN*T1) [Peptide 13]

IC50 [2, 20]: 39 µM | IC50 [2, 19]: 25 µM
Molecule: KLKQKT1N*VVAWT3 [21] (cyclo(KLKQK[T1][Nle]VVAW[T3])) [Peptide 21]

IC50 [2, 20]: 12 µM | IC50 [2, 19]: 19 µM
Molecule: KLKLQT1N*VVAWT3 (cyclo(KLKLQ[T1][Nle]VVAW[T3])) [Peptide 19]

IC50 [2, 20]: 15 µM | IC50 [2, 19]: 18 µM
Molecule: KQKLKT1N*VVAWT3 (cyclo(KQKLK[T1][Nle]VVAW[T3])) [Peptide 20]

IC50 [2, 20]: 25 µM | IC50 [2, 19]: 13 µM
Molecule: KLKQKT1N*VVAWT3 [17] (cyclo(KLKQK[T1][Nle]VVAW[T3])) [Peptide 17]

IC50 [2, 20]: 10 µM | IC50 [2, 19]: 12 µM
Molecule: KLKLKT1WAVVN*T1 (cyclo(KLKLK[T1]WAVV[Nle][T1])) [Peptide 11]

IC50 [2, 20]: 1 µM | IC50 ([2]; Table 4, H929 myeloma cells, 24 h, Topro-3 staining and FACS, mean of 3 independent experiments, read-out: IC50): 6.7 µM | IC50 ([2]; Table 5, H929 multiple myeloma cells, 24 hour peptide treatment, mean and standard deviation of three independent experiments, read-out: IC50): 5.9 µM | IC50 [2, 19]: 6 µM
Molecule: KLKLKT1WSVVMT1 (cyclo(KLKLK[T1]WSVVM[T1])) [Peptide 10]
bioactivity relative to parent/comparator peptide ([2]; H929 cells): increases in activity relative to the inverso peptide

IC50 [2, 20]: 18 µM | IC50 [2, 19]: 3 µM
Molecule: KLKLKT1AAVVN*T1 (cyclo(KLKLK[T1″]AAVV[Nle][T1″])) [Peptide 15]
bioactivity relative to parent/comparator peptide ([2]; H929 cells): unexpected improvement in bioactivity
